Test: xn = mol fraction of the nth substance listed
Details: 100 kPa, Liquid; for speed of sound: Frequency=3 MHz, Sing-around technique in a fixed-path interferometer; for mass density: Vibrating tube method

CCCCn1cc[n+](C)c1C.F[B-](F)(F)F [1-butyl-2,3-dimethylimidazolium tetrafluoroborate] + CCn1cc[n+](C)c1.F[B-](F)(F)F
Details	mass density, 293.15 K [kg/m3]	mass density, 298.15 K [kg/m3]	mass density, 303.15 K [kg/m3]	mass density, 308.15 K [kg/m3]	speed of sound, 293.15 K [m/s]	speed of sound, 298.15 K [m/s]	speed of sound, 303.15 K [m/s]	speed of sound, 308.15 K [m/s]
x1 = 0.0952	1270.9	1267.3	1264.1	1260.5	1636.2	1624.1	1611.9	1600.4
x1 = 0.1386	1265.5	1262.1	1259	1255.6	1638.2	1626	1613.7	1602.1
x1 = 0.1754	1261.2	1257.9	1255	1251.7	1639.8	1627.4	1615.1	1603.4
x1 = 0.2361	1254.5	1251.5	1248.7	1245.7	1642.2	1629.6	1617.2	1605.3
x1 = 0.2819	1249.8	1247	1244.3	1241.4	1643.8	1631.1	1618.5	1606.6
x1 = 0.3347	1244.7	1242.1	1239.5	1236.7	1645.4	1632.5	1619.9	1607.9
x1 = 0.3722	1241.3	1238.8	1236.3	1233.6	1646.5	1633.5	1620.8	1608.7
x1 = 0.4192	1237.2	1234.9	1232.4	1229.9	1647.7	1634.6	1621.8	1609.7
x1 = 0.4451	1235.1	1232.8	1230.4	1227.9	1648.3	1635.1	1622.4	1610.2
x1 = 0.4807	1232.2	1230	1227.7	1225.2	1649.1	1635.8	1623	1610.8
x1 = 0.5327	1228.2	1226.1	1223.8	1221.4	1650.2	1636.8	1623.9	1611.7
x1 = 0.5785	1224.8	1222.8	1220.5	1218.2	1651	1637.6	1624.7	1612.4
x1 = 0.6364	1220.6	1218.7	1216.4	1214.2	1652.1	1638.5	1625.6	1613.2
x1 = 0.6729	1218	1216.1	1213.9	1211.7	1652.7	1639.1	1626.1	1613.7
x1 = 0.7342	1213.7	1211.8	1209.7	1207.6	1653.8	1640.1	1627.1	1614.6
x1 = 0.7738	1210.9	1209	1206.9	1204.9	1654.5	1640.8	1627.7	1615.2
x1 = 0.8254	1207.2	1205.4	1203.2	1201.3	1655.5	1641.7	1628.6	1616.1
x1 = 0.8739	1203.6	1201.8	1199.7	1197.8	1656.5	1642.7	1629.5	1616.9
x1 = 1	1193.5	1191.8	1189.7	1187.9	1659.7	1645.7	1632.5	1619.8

CCn1cc[n+](C)c1.F[B-](F)(F)F [1-ethyl-3-methylimidazolium tetrafluoroborate] + CCCCn1cc[n+](C)c1.F[B-](F)(F)F
Details	mass density, 293.15 K [kg/m3]	mass density, 298.15 K [kg/m3]	mass density, 303.15 K [kg/m3]	mass density, 308.15 K [kg/m3]	speed of sound, 293.15 K [m/s]	speed of sound, 298.15 K [m/s]	speed of sound, 303.15 K [m/s]	speed of sound, 308.15 K [m/s]
x2 = 0	1283.9	1279.9	1276.3	1272.1	1631.1	1619.2	1607.4	1596.2
x2 = 0.0728	1274.4	1270.8	1267.5	1263.8	1628.1	1616	1604	1592.6
x2 = 0.1143	1269.1	1265.7	1262.6	1259.1	1626.4	1614.2	1602.2	1590.6
x2 = 0.148	1264.9	1261.6	1258.7	1255.3	1625	1612.7	1600.7	1589.1
x2 = 0.1737	1261.8	1258.6	1255.7	1252.4	1624	1611.6	1599.5	1587.9
x2 = 0.2204	1256.4	1253.2	1250.5	1247.4	1622	1609.6	1597.5	1585.7
x2 = 0.2684	1251.1	1248	1245.3	1242.3	1620	1607.5	1595.3	1583.5
x2 = 0.3155	1246.2	1243.1	1240.5	1237.6	1618	1605.4	1593.3	1581.3
x2 = 0.3619	1241.6	1238.6	1236	1233.2	1616	1603.3	1591.2	1579.1
x2 = 0.4167	1236.6	1233.6	1231.1	1228.3	1613.6	1600.8	1588.7	1576.6
x2 = 0.4759	1231.8	1228.7	1226.1	1223.4	1610.8	1598	1585.9	1573.7
x2 = 0.5282	1227.9	1224.7	1222.2	1219.4	1608.3	1595.5	1583.3	1571.1
x2 = 0.5742	1224.7	1221.5	1218.9	1216.1	1605.9	1593.1	1581	1568.8
x2 = 0.6356	1220.9	1217.6	1214.9	1212.1	1602.7	1589.8	1577.7	1565.6
x2 = 0.6835	1218.1	1214.8	1212.1	1209.1	1600	1587.1	1575.1	1563
x2 = 0.7381	1215.3	1211.8	1209	1206	1596.7	1583.9	1572	1559.8
x2 = 0.7892	1212.8	1209.2	1206.3	1203.2	1593.5	1580.7	1568.8	1556.8
x2 = 0.8364	1210.6	1206.9	1203.9	1200.6	1590.4	1577.6	1565.8	1553.8
x2 = 0.8932	1208	1204.2	1201	1197.6	1586.4	1573.7	1562	1550

CCCCn1cc[n+](C)c1C.F[B-](F)(F)F [1-butyl-2,3-dimethylimidazolium tetrafluoroborate] + CCCCn1cc[n+](C)c1.F[B-](F)(F)F
Details	mass density, 293.15 K [kg/m3]	mass density, 298.15 K [kg/m3]	mass density, 303.15 K [kg/m3]	mass density, 308.15 K [kg/m3]	speed of sound, 293.15 K [m/s]	speed of sound, 298.15 K [m/s]	speed of sound, 303.15 K [m/s]	speed of sound, 308.15 K [m/s]
x1 = 0.0917	1198.6	1195.3	1192.4	1189.4	1587.2	1574.1	1562.2	1550
x1 = 0.1281	1197.1	1194	1191.4	1188.6	1590.7	1577.4	1565.4	1553.1
x1 = 0.1633	1195.8	1193	1190.4	1187.9	1594	1580.6	1568.4	1556
x1 = 0.2059	1194.4	1191.8	1189.5	1187.1	1597.8	1584.3	1572	1559.5
x1 = 0.2455	1193.3	1190.9	1188.6	1186.4	1601.3	1587.7	1575.3	1562.7
x1 = 0.2967	1192.2	1189.9	1187.8	1185.7	1605.7	1591.9	1579.5	1566.8
x1 = 0.3424	1191.3	1189.2	1187.1	1185.2	1609.5	1595.7	1583.1	1570.4
x1 = 0.3974	1190.6	1188.6	1186.6	1184.8	1613.9	1600.1	1587.4	1574.6
x1 = 0.4496	1190.2	1188.3	1186.3	1184.6	1618.1	1604.1	1591.5	1578.6
x1 = 0.4997	1190	1188.2	1186.2	1184.5	1622	1608	1595.2	1582.4
x1 = 0.5418	1190	1188.2	1186.2	1184.5	1625.2	1611.2	1598.4	1585.5
x1 = 0.5941	1190.1	1188.3	1186.4	1184.7	1629.1	1615.1	1602.2	1589.4
x1 = 0.6398	1190.3	1188.5	1186.7	1184.9	1632.5	1618.5	1605.6	1592.9
x1 = 0.6873	1190.6	1188.9	1187	1185.3	1636	1622	1609.1	1596.3
x1 = 0.7388	1191	1189.3	1187.4	1185.7	1639.9	1625.9	1612.9	1600.1
x1 = 0.7963	1191.6	1189.9	1187.9	1186.1	1644.1	1630.1	1617.1	1604.4
x1 = 0.8482	1192.1	1190.4	1188.4	1186.5	1648	1634	1621	1608.4
x1 = 0.8903	1192.6	1190.8	1188.7	1187	1651.2	1637.2	1624.2	1611.4
x1 = 1	1193.5	1191.8	1189.7	1187.9	1659.7	1645.7	1632.5	1619.8

Reference: the NIST ThermoML archive (doi:10.1016/j.jct.2016.08.010)
